Test results published in patent US10155259B2 (Merck Sharp & Dohme B.V., priority 2011, dated 2018).

biological target: T1, human FSH receptor (Homo sapiens, UniProt P23945); assay: Antagonistic activity of compounds at the human FSH receptor expressed in CHO cells (CRE-luciferase reporter); format: cell-based; details: CHO cells stably transfected with human FSH receptor and CRE/luciferase reporter; together with 49 μM recFSH; 4 hours incubation; 1% DMSO; read-out: IC50 (concentration of test compound causing half-maximal inhibition of the maximally attainable inhibition of the luciferase stimulation)
T1 construct: expressed in transfected cells; host or cells: CHO cells, stably transfected; cotransfected with CRE-luciferase reporter
T1 sequence (P23945 18-695): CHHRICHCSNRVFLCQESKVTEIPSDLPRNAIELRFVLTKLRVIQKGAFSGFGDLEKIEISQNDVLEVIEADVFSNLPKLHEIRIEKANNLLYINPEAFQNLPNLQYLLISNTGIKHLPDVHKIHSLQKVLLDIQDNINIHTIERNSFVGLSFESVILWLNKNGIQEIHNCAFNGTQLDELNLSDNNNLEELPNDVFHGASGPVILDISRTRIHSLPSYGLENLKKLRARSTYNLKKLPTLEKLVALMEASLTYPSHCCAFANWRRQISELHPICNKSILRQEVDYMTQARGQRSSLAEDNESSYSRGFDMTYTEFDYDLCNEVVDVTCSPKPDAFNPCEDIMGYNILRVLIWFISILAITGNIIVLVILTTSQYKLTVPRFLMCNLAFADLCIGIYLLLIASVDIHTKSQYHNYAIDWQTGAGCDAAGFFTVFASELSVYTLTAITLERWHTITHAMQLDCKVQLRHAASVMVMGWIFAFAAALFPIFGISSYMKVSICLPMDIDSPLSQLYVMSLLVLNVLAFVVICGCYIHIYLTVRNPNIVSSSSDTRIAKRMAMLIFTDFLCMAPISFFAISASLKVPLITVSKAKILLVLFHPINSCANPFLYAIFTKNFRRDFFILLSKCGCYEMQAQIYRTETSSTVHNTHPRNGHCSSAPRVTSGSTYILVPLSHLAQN
Experimental: Antagonistic Activity of Compounds at the Human FSH Receptor Expressed in CHO Cells
Antagonistic activity of the compounds at the human FSH receptor was determined in Chinese Hamster Ovary (CHO) cells stably transfected with the human FSH receptor and cotransfected with a cAMP responsive element (CRE)/promotor directing the expression of a firefly luciferase reporter gene. Binding of the compounds to the Gs protein-coupled FSH receptor will result in an increase of cAMP, which in turn will induce an increased transactivation of the luciferase reporter. The cells (7,500 cells/well of a 384 well plate) were incubated in Dulbecco' minimal essential F12 modified medium (Invitrogen), supplemented with 1 μg/ml bovine insulin, 5 μg/ml human apo-transferrin, 100 U/ml penicillin G and 100 μg/ml streptomycin with the test compounds (concentration between 0.316 nM and 10.0 μM) in duplicate together with […] (which, at this concentration in the absence of test compound, induces 80% of the maximal luciferase stimulation) in a humidified atmosphere (95%) at 5-7% CO2 and 37° C. The final concentration of DMSO was 1%. After 4 hours of incubation, plates were allowed to adjust to room temperature for 1 hour. Then, SteadyLite (PerkinElmer) solution was added to the wells and cells were allowed to lyse for at least 1 hour at room temperature. Subsequently, luciferase activity was measured in a luminescence counter. The signal is expressed as counts per second (cps). The IC50 (concentration of test compound causing half-maximal (50%) inhibition of the maximally attainable inhibition of the luciferase stimulation by the compound) and efficacy of the compounds were determined using the software program MathIQ (version 2.3, ID Business Solutions Limited).

Structure (SMILES)	IC50 [nM]
COc1cc2c(cc1OC)-c1c(C)c(C(=O)N[C@@H](CO)Cc3c[nH]c4ccccc34)c(-c3ccccc3)n1CC2 [Example 1, (R)—N-(1-hydroxy-3-(1H-indol-3-yl)propan-2-yl)-8,9-dimethoxy-1-methyl-3-phenyl-5,6-dihydropyrrolo[2,1-a]isoquinoline-2-carboxamide]	100 to 1000
COc1cc2c(cc1OC(C)C)-c1cc(C(=O)NC(C)(CO)Cc3c[nH]c4ccccc34)c(-c3cccc(F)c3)n1CC2 (centres unmarked) [Example 2]	100 to 1000
COc1cc2c(cc1OC(C)C)-c1cc(C(=O)NC(CO)C3(c4c[nH]c5ccccc45)CC3)c(-c3cccc(F)c3)n1CC2 (centres unmarked) [Example 3]	100 to 1000
COc1cc2c(cc1OC)-c1cc(C(=O)N[C@@H](CO)Cc3c[nH]c4ccccc34)c(-c3cc(C)cc(C)c3)n1CC2 [Example 4, (R)-3-(3,5-dimethylphenyl)-N-(1-hydroxy-3-(1H-indol-3-yl)propan-2-yl)-8,9-dimethoxy-5,6-dihydropyrrolo[2,1-a]isoquinoline-2-carboxamide]	100 to 1000
COc1cc2c(cc1OC)-c1cc(C(=O)N[C@@H](CO)Cc3c[nH]c4ccccc34)c(-c3ccccc3)n1CC2 [Example 5, (R)—N-(1-hydroxy-3-(1H-indol-3-yl)propan-2-yl)-8,9-dimethoxy-3-phenyl-5,6-dihydropyrrolo[2,1-a]isoquinoline-2-carboxamide]	< 100
COc1cc2c(cc1OC)-c1cc(C(=O)N[C@@H](CO)Cc3c[nH]c4ccccc34)c(-c3ccc(F)cc3)n1CC2 [Example 6, (R)—N-(1-hydroxy-3-(1H-indol-3-yl)propan-2-yl)-8,9-dimethoxy-3-(4-fluorophenyl)-5,6-dihydropyrrolo[2,1-a]isoquinoline-2-carboxamide]	< 100
COc1cc2c(cc1OC)-c1cc(C(=O)N[C@@H](CO)Cc3c[nH]c4ccccc34)c(-c3cccs3)n1CC2 [Example 7, (R)—N-(1-hydroxy-3-(1H-indol-3-yl)propan-2-yl)-8,9-dimethoxy-3-(thiophen-2-yl)-5,6-dihydropyrrolo[2,1-a]isoquinoline-2-carboxamide]	< 100
COc1ccc(-c2c(C(=O)N[C@@H](CO)Cc3c[nH]c4ccccc34)cc3n2CCc2cc(OC)c(OC)cc2-3)cc1 [Example 8, (R)—N-(1-hydroxy-3-(1H-indol-3-yl)propan-2-yl)-8,9-dimethoxy-3-(4-methoxyphenyl)-5,6-dihydropyrrolo[2,1-a]isoquinoline-2-carboxamide]	< 100
COc1cc2c(cc1OC)-c1cc(C(=O)N[C@@H](CO)Cc3c[nH]c4ccccc34)c(-c3ccc([N+](=O)[O-])cc3)n1CC2 [Example 9, (R)—N-(1-hydroxy-3-(1H-indol-3-yl)propan-2-yl)-8,9-dimethoxy-3-(4-nitrophenyl)-5,6-dihydropyrrolo[2,1-a]isoquinoline-2-carboxamide]	100 to 1000
COc1cc2c(cc1OC)-c1cc(C(=O)N[C@@H](CO)Cc3c[nH]c4ccccc34)c(-c3cccc(F)c3)n1CC2 [Example 10, (R)-3-(3-fluorophenyl)-N-(1-hydroxy-3-(1H-indol-3-yl)propan-2-yl)-8,9-dimethoxy-5,6-dihydropyrrolo[2,1-a]isoquinoline-2-carboxamide]	< 100
COc1cc2c(cc1OC)-c1cc(C(=O)N[C@@H](CO)Cc3c[nH]c4ccccc34)c(-c3ccccn3)n1CC2 [Example 11]	< 100
COc1cccc(-c2c(C(=O)N[C@@H](CO)Cc3c[nH]c4ccccc34)cc3n2CCc2cc(OC)c(OC)cc2-3)c1 [Example 12, (R)—N-(1-hydroxy-3-(1H-indol-3-yl)propan-2-yl)-8,9-dimethoxy-3-(3-methoxyphenyl)-5,6-dihydropyrrolo[2,1-a]isoquinoline-2-carboxamide]	< 100
COc1cc2c(cc1OC(C)C)-c1cc(C(=O)N[C@@H](CO)Cc3c[nH]c4ccccc34)c(-c3ccc(F)cc3)n1CC2 [Example 13, (R)-3-(4-fluorophenyl)-N-(1-hydroxy-3-(1H-indol-3-yl)propan-2-yl)-9-isopropoxy-8-methoxy-5,6-dihydropyrrolo[2,1-a]isoquinoline-2-carboxamide]	< 100
COc1cc2c(cc1OC(C)C)-c1cc(C(=O)N[C@@H](CO)Cc3c[nH]c4ccccc34)c(-c3cccc(C)c3)n1CC2 [Example 14, (R)—N-(1-hydroxy-3-(1H-indol-3-yl)propan-2-yl)-9-isopropoxy-8-methoxy-3-m-tolyl-5,6-dihydropyrrolo[2,1-a]isoquinoline-2-carboxamide]	< 100
COc1cc2c(cc1OC(C)C)-c1cc(C(=O)N[C@@H](CO)Cc3c[nH]c4ccccc34)c(-c3ccc(N)nc3)n1CC2 [Example 15, (R)-3-(6-aminopyridin-3-yl)-N-(1-hydroxy-3-(1H-indol-3-yl)propan-2-yl)-9-isopropoxy-8-methoxy-5,6-dihydropyrrolo[2,1-a]isoquinoline-2-carboxamide]	100 to 1000
COc1cc2c(cc1OC(C)C)-c1cc(C(=O)N[C@@H](CO)Cc3c[nH]c4ccccc34)c(-c3cccc(Cl)c3)n1CC2 [Example 16, (R)-3-(3-chlorophenyl)-N-(1-hydroxy-3-(1H-indol-3-yl)propan-2-yl)-9-isopropoxy-8-methoxy-5,6-dihydropyrrolo[2,1-a]isoquinoline-2-carboxamide]	< 100
COc1cc2c(cc1OC(C)C)-c1cc(C(=O)N[C@@H](CO)Cc3c[nH]c4ccccc34)c(-c3ccccc3F)n1CC2 [Example 18, 3-(2-fluorophenyl)-N—((R)-1-hydroxy-3-(1H-indol-3-yl)propan-2-yl)-9-isopropoxy-8-methoxy-5,6-dihydropyrrolo[2,1-a]isoquinoline-2-carboxamide]	< 100
COc1cc2c(cc1OC(C)C)-c1cc(C(=O)N[C@@H](CO)Cc3c[nH]c4ccccc34)c(-c3ccco3)n1CC2 [Example 19, (R)-3-(furan-2-yl)-N-(1-hydroxy-3-(1H-indol-3-yl)propan-2-yl)-9-isopropoxy-8-methoxy-5,6-dihydropyrrolo[2,1-a]isoquinoline-2-carboxamide]	< 100
COc1cc2c(cc1OC(C)C)-c1cc(C(=O)N[C@@H](CO)Cc3c[nH]c4ccccc34)c(CC(C)C)n1CC2 [Example 22, (R)—N-(1-hydroxy-3-(1H-indol-3-yl)propan-2-yl)-3-isobutyl-9-isopropoxy-8-methoxy-5,6-dihydropyrrolo[2,1-a]isoquinoline-2-carboxamide]	< 100
COc1cc2c(cc1OC(C)C)-c1cc(C(=O)N[C@@H](CO)Cc3c[nH]c4ccccc34)c(C=C(C)C)n1CC2 [Example 23, (R)—N-(1-hydroxy-3-(1H-indol-3-yl)propan-2-yl)-9-isopropoxy-8-methoxy-3-(2-methylprop-1-enyl)-5,6-dihydropyrrolo[2,1-a]isoquinoline-2-carboxamide]	< 100
COc1cc2c(cc1OC(C)C)-c1cc(C(=O)N[C@@H](CO)Cc3c[nH]c4ccccc34)c(C(=O)C(C)C)n1CC2 [Example 24, (R)—N-(1-hydroxy-3-(1H-indol-3-yl)propan-2-yl)-3-isobutyryl-9-isopropoxy-8-methoxy-5,6-dihydropyrrolo[2,1-a]isoquinoline-2-carboxamide]	< 100
COc1cc2c(cc1OC(C)C)-c1cc(C(=O)N[C@@H](CO)Cc3c[nH]c4ccccc34)c(C(=O)C(C)(C)C)n1CC2 [Example 25, (R)—N-(1-hydroxy-3-(1H-indol-3-yl)propan-2-yl)-9-isopropoxy-8-methoxy-3-pivaloyl-5,6-dihydropyrrolo[2,1-a]isoquinoline-2-carboxamide]	< 100
CCCC(=O)c1c(C(=O)N[C@@H](CO)Cc2c[nH]c3ccccc23)cc2n1CCc1cc(OC)c(OC(C)C)cc1-2 [Example 26, (R)-3-butyryl-N-(1-hydroxy-3-(1H-indol-3-yl)propan-2-yl)-9-isopropoxy-8-methoxy-5,6-dihydropyrrolo[2,1-a]isoquinoline-2-carboxamide]	< 100
